Reference: patent US5043166A, “Liposome/anthraquinone drug composition and method” (priority 1989, dated 1991)
Read-outs that look alike come from different tables or passages of the source.

Key:
[1] = test system: myeloid centers in the spleen; conditions: 10 mg/kg of DXR; cited from earlier work
human cancer patients [2] = conditions: cited from earlier work
human cancer patients [3] = experiment: clinical trials with L-DXR in cancer patients; conditions: in vivo
Procedure: Eight cancer patients have been treated with the L-DXR composition of Example III. The administration of the drug was done using a 120 ml "Voluset" at a concentration of approximately 0.5 mg/ml in isotonic saline and at a rate of 2-3 ml per min. For intraarterial injections, peristaltic pumps were used, with the rate of infusion being ~1.5 ml/min. […] This was done taking advantage of previously implanted pumps. In both patients, the perfusion of the liver with the pump was previously examined with a Tc-99 labeled macroaggregated albumin scan.

Sabra mice = experiment: repeated administration of graded doses of F-DXR and L-DXR; assay type: in vivo
Procedure: (§1) L-DXR was prepared as in Example I, to final DXR concentrations of 0.5, 0.75, and 1.0 mg/ml, corresponding to phospholipid concentrations of 8, 12, and 16 μmole/ml, respectively, and cholesterol concentrations of 3.2, 4.8, and 6.4 μmole/ml, respectively. Free DXR (F-DXR) was prepared in sterile, pyrogen-free physiologic saline solution to final concentrations of 0.5, 0.75, and 1 mg/ml.
(§2) Sabra mice were divided into groups of 15 mice. Three different doses of either F-DXR or L-DXR were tested: 5, 7.5, and 10 mg/kg body weight. Each dose level was tested on 15 male and 15 female mice. Treatment was administered as a bolus injection through the tail vein on days 0, 14, 28, 42, 56, 70, 84, and 98 of the experiment. The pulsed injection scheme was used for the purpose of achieving high cumulative doses, prolonging the period of exposure of the animals to the drug, and mimicking the way DXR is usually administered in clinical practice. In view of the toxicity observed after single injection (Example XI), DXR was administered at a maximum 10 mg/kg dosage so that the occurrence of acute toxicity would be reduced or nil. In order to avoid the overlapping myelosuppression of successive treatment, 14 days were allowed between successive injections, based on previous observations that full regeneration of the activity of myeloid centers in the spleen after treatment with 10 mg/kg of DXR occurred between 7-12 days after drug administration.
(§3) During the course of the experiment, mice were inspected daily and survival curves were recorded. Whenever possible, dead mice were autopsied and a limited sample of organs sent for histopathological examination. Blood counts and body weights were checked weekly. The blood counts were done in a Coulter analyzer with a 20 μl sample obtained from the retro-orbital blood sinuses. One-third of the mice of each group were sacrificed on day 42, after 3 injections. A second third was sacrificed on day 84, after 6 injections. The remaining mice were sacrificed on day 180, 82 days after the 8the and last injection. Before sacrifice, the mice were bled under light ether anesthesia to obtain serum for the biochemical tests. The animals were then dissected and the removed organs, after weighing, were fixed in Bouin's solution and processed for light microscopy examination with hematoxylin-eosin-phosphomolybdic acid: light green stain.
(§4) (c) Effects on Body and Organ Weights. […] The weight measurements were made 42, 84, and 180 days after initial drug injection. The body and organ weights are expressed in percent relative to untreated mice. The percent survivors at each of the three time points is indicated at the top in the table; the dashes (-) indicate no survivors.

[4] = as above; assay type: in vivo, mice; conditions: mouse, in vivo, iv, 10 mg/kg, read-out: % Surviving; for survival at 1008 h: day 42, 10 mg/kg
Procedure: as §1, §2, §3, §4

[5] = blood biochemistry after repeated administration; assay type: in vivo, mice; conditions: mouse, in vivo, iv, female, read-out: % Surviving (Table IX)
Procedure: as §2, §3
d) Effects on Blood Biochemistry Values. Blood levels of glucose, cholesterol, triglycerides, urea, uric acid, creatine, and total protein were measured at 42, 84, and 180 day time points. Blood enzyme levels of alkaline phosphatase, aspartate aminotransferase, and alanine aminotransferase were also assayed at these time points.
The most important differences in blood chemistry between F-DXR and L-DXR administration occurred in blood glucose, cholesterol, and triglyceride levels. These differences are seen in Table III below, which gives data on female mice receiving 10 mg/kg of either F-DXR or L-DXR. Glucose, cholesterol, and triglyceride levels are expressed as percent control (untreated) animals, and "nm" means "not measured".

[6] = fluorescence of DXR-Fe(III) complex with SUVs (drug modification); assay type: physicochemical; conditions: in presence of SUVs with saturated and/or unsaturated phospholipids
Excerpt: The studies examined the binding of DXR to ferric iron, both in the presence and absence of small unilamellar vesicles (SUVs) formed from the saturated phospholipid dimyristylphosphatidylcholine (DMPC).
One measure of this modification is a change in the 590/560 nm ratio of the fluorescence spectra, which would result from modification of the antracene ring.

[7] = single injection survival with graded doses of F-DXR and L-DXR; set-up: species or system mice; conditions: mouse, in vivo, iv, 90 days
Procedure: L-DXR was prepared as in Example I, to final DXR concentrations of 1, 1.5, 2, and 2.5 mg/ml, with corresponding phospholipid concentrations of 16, 24, 32, and 40 μmole/ml, respectively, and cholesterol concentrations of 6.4, 9.6, 12.8, and 16 μmole/ml, respectively. Free DXR (F-DXR) was prepared in sterile, pyrogen-free physiologic saline solution to final concentrations of 1, 1.5, 2, and 2.5 mg/ml.
BALB/c male mice were treated intravenously with 4 different doses of F-DXR and L-DXR: 10, 15, 20, and 25 mg/kg, by administering about 1% total animal weight of the corresponding F-DXR or L-DXR formulation. […] No mortality was registered among animals treated with 15 and 10 mg/kg of L-DXR and 60% of the mice injected with 20 mg/kg survived throughout 90 days. F-DXR caused 100% of mortality in the groups injected with 25, 20, and 15 mg/kg and 20% mortality in the group receiving 10 mg/kg.

[8] = cited from earlier work

COc1cccc2c1C(=O)c1c(O)c3c(c(O)c1C2=O)C[C@@](O)(C(=O)CO)C[C@@H]3O[C@H]1C[C@H](N)[C@H](O)[C@H](C)O1 [DXR, doxorubicin]
full regeneration of myeloid centers in the spleen [1]: 7 to 12 days
previous treatment outcome (human cancer patients [2]; patient 5, hepatoma): Previous failure
previous treatment outcome (human cancer patients [2]; patient 8, hepatoma): failure
fever (human cancer patients [3]): fever was a constant feature
lower limb weakness (Sabra mice; 10 mg/kg): marked weakness of the lower limbs
organ weights (liver, spleen, kidneys, heart) (Sabra mice; 10 mg/kg): substantial weight reduction
mortality rates, all groups (Sabra mice; 5, 7.5 and 10 mg/kg): Significant mortality rates
white cell count (Sabra mice; 7 and 14 days after each injection): no significant differences between the F-DXR and the L-DXR treated groups
findings in animals dying (Sabra mice; 7.5 and 5 mg/kg): pleural and peritoneal effusions, cardiomegaly, and lung congestion
Body weight, percent relative to untreated mice (Sabra mice; female, day 42, 10 mg/kg): 95%
Heart weight, percent relative to untreated mice (Sabra mice; female, day 42, 10 mg/kg): 97%
Kidneys weight, percent relative to untreated mice (Sabra mice; female, day 42, 10 mg/kg): 78%
Liver weight, percent relative to untreated mice (Sabra mice; female, day 42, 10 mg/kg): 107%
Spleen weight, percent relative to untreated mice (Sabra mice; female, day 42, 10 mg/kg): 78%
Body weight, percent relative to untreated mice (Sabra mice; female, day 84, 10 mg/kg): 84%
Heart weight, percent relative to untreated mice (Sabra mice; female, day 84, 10 mg/kg): 74%
Kidneys weight, percent relative to untreated mice (Sabra mice; female, day 84, 10 mg/kg): 91%
Liver weight, percent relative to untreated mice (Sabra mice; female, day 84, 10 mg/kg): 91%
Spleen weight, percent relative to untreated mice (Sabra mice; female, day 84, 10 mg/kg): 67%
sex difference in toxicity (Sabra mice; high and intermediate dosages): slight trend towards higher toxicity in male as compared to female mice
Body weight, percent relative to untreated mice (Sabra mice; male, day 42, 10 mg/kg): 75%
Heart weight, percent relative to untreated mice (Sabra mice; male, day 42, 10 mg/kg): 82%
Kidneys weight, percent relative to untreated mice (Sabra mice; male, day 42, 10 mg/kg): 76%
Liver weight, percent relative to untreated mice (Sabra mice; male, day 42, 10 mg/kg): 75%
Spleen weight, percent relative to untreated mice (Sabra mice; male, day 42, 10 mg/kg): 71%
survival at 1008 h ([4]; female): 93%
survival at 2016 h ([4]; female, day 84, 10 mg/kg): 27%
survival at 1008 h ([4]; male): 87%
survival at 1008 h ([5]; day 42, 10 mg/kg): 93%
survival at 2016 h ([5]; day 84, 10 mg/kg): 27%
chemical modification with ferric iron [6]: relatively rapid and irreversible chemical modification
mortality at 2160 h ([7]; 10 mg/kg i.v.): 20%
mortality at 2160 h ([7]; 15 mg/kg i.v.): 100%
mortality at 2160 h ([7]; 20 mg/kg i.v.): 100%
mortality at 2160 h ([7]; 25 mg/kg i.v.): 100%
cardiac toxicity on repeated administration ([8]; repeated administration): cumulative and irreversible cardiac damage
acute toxicity ([8]; soluble form): malaise, nausea, vomiting myelosuppression, and severe alopecia
